Assay results: article PMC3893891 (Journal of biomolecular screening, 2012)

Legend:
Type in all cases: biochemical
Conditions in all cases: OMFP substrate
[1] = biological target: T1, PPM1A (Homo sapiens, UniProt P35813); test: Phosphatase assay of PPM1A
T1 sequence (P35813 1-382): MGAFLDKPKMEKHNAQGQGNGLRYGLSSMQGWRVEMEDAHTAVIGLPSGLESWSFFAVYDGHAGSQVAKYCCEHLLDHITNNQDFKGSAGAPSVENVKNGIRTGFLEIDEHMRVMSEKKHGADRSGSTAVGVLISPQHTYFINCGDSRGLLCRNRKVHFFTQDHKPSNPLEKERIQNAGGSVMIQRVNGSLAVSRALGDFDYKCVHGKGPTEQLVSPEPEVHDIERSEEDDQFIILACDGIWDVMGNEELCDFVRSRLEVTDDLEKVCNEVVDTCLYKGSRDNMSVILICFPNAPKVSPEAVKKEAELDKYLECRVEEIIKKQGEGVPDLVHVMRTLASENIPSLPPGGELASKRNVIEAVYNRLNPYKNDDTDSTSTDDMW

[2] = biological target: T2, Scp1 (Homo sapiens, UniProt Q9GZU7); test: Phosphatase assay of Scp1
T2 sequence (Q9GZU7 1-261): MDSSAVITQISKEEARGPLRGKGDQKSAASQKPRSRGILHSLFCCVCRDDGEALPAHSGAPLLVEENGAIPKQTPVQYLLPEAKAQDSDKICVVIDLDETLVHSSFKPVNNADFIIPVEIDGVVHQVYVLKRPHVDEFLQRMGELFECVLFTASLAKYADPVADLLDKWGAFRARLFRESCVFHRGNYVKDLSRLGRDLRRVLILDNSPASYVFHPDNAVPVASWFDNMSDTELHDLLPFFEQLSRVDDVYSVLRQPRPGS

[3] = biological target: T3, PTP1B (Homo sapiens, UniProt P18031); test: Phosphatase assay of PTP1B
T3 sequence (P18031 1-435): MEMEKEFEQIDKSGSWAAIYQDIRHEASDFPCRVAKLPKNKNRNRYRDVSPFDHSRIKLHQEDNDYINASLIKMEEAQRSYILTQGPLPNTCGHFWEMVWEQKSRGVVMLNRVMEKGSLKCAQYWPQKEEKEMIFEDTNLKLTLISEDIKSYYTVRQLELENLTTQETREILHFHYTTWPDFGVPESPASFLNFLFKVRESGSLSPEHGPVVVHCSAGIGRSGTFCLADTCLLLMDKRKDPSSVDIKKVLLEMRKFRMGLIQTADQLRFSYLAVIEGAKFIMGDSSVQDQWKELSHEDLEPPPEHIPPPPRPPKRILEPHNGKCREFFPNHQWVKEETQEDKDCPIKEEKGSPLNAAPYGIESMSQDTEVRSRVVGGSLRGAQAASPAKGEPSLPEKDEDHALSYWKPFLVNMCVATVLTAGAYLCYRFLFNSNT

inhibition of PPM1A phosphatase activity [1] | inhibition of Scp1 phosphatase activity [2] | inhibition of PTP1B phosphatase activity [3] | Structure (SMILES)
does not significantly inhibit | does not significantly inhibit | does not significantly inhibit | O=C(N/N=C/c1ccc(Sc2ccccn2)o1)c1ccccc1 [NCGC00241225]
does not significantly inhibit | does not significantly inhibit | does not significantly inhibit | O=C(N/N=C/c1ccc(Sc2ccccn2)o1)c1cccc([N+](=O)[O-])c1 [MLS000700592]
